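The compound was tested at five concentrations on cells cultured in 96-well plates, with a 48-hour exposure period. GI50 marks 50% less growth. TGI is the concentration that stops growth completely.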
Columns and labels:
Experiment in all cases: DTP human tumour cell line panel, 48 h
MDA-MB-468 breast = system: MDA-MB-468 breast
UACC-62 melanoma = system: UACC-62 melanoma
RPMI-8226 leukemia = system: RPMI-8226 leukemia
HL-60(TB) leukemia = system: HL-60(TB) leukemia
RXF 393 renal = system: RXF 393 renal
MOLT-4 leukemia = system: MOLT-4 leukemia
HOP-92 NSCLC = system: HOP-92 NSCLC
SK-OV-3 ovarian = system: SK-OV-3 ovarian
SF-539 CNS = system: SF-539 CNS
LOX IMVI melanoma = system: LOX IMVI melanoma
NCI-H522 lung = system: NCI-H522 lung
CCRF-CEM leukemia = system: CCRF-CEM leukemia
PC-3 prostate = system: PC-3 prostate
M14 melanoma = system: M14 melanoma
OVCAR-5 ovarian = system: OVCAR-5 ovarian
MDA-MB-435 = system: MDA-MB-435
SR leukemia = system: SR leukemia
BT-549 breast = system: BT-549 breast
DU-145 prostate = system: DU-145 prostate
786-0 renal = system: 786-0 renal
A549 NSCLC = system: A549 NSCLC
T-47D breast = system: T-47D breast
HOP-62 NSCLC = system: HOP-62 NSCLC
SNB-19 CNS = system: SNB-19 CNS
HCC-2998 colon = system: HCC-2998 colon
SF-268 CNS = system: SF-268 CNS
OVCAR-3 ovarian = system: OVCAR-3 ovarian
OVCAR-8 ovarian = system: OVCAR-8 ovarian
SW-620 colon = system: SW-620 colon
SN12C renal = system: SN12C renal
ACHN renal = system: ACHN renal
HS 578T breast = system: HS 578T breast
SK-MEL-2 melanoma = system: SK-MEL-2 melanoma
K-562 leukemia = system: K-562 leukemia
HCT-15 colon = system: HCT-15 colon
SNB-75 CNS = system: SNB-75 CNS
CAKI-1 renal = system: CAKI-1 renal
HT29 colon = system: HT29 colon
EKVX NSCLC = system: EKVX NSCLC
SF-295 CNS = system: SF-295 CNS
NCI-H23 lung = system: NCI-H23 lung
MALME-3M melanoma = system: MALME-3M melanoma
COLO 205 colon = system: COLO 205 colon
OVCAR-4 ovarian = system: OVCAR-4 ovarian
KM12 colon = system: KM12 colon
HCT-116 colon = system: HCT-116 colon

Cc1ccccc1OCC(O)CN1CCN(c2ccc(Cl)cc2)CC1 (centres undefined)
GI50 (MDA-MB-468 breast): 17400 nM
TGI (MDA-MB-468 breast): 35400 nM

COc1cc(C(=O)c2c(-c3ccccc3)oc3c(OC)cccc23)cc(OC)c1OC
GI50 (MDA-MB-468 breast): 83.9 nM
TGI (MDA-MB-468 breast): 11100 nM

Nc1ncnc2c1N=C(c1ccc3c(c1)OCO3)CC(c1ccc([N+](=O)[O-])cc1)N2 (centres undefined)
GI50 (MDA-MB-468 breast): 25200 nM
TGI (MDA-MB-468 breast): 60400 nM

CN1CCN(C(=O)C(C)(C)c2ccc(C(=O)Nc3cn4cc(-c5ccncc5)ccc4n3)cc2)CC1
GI50 (MDA-MB-468 breast): 162 nM
TGI (MDA-MB-468 breast): 1180 nM

CCNCCCn1c2c(c3ccc(Cl)cc3c1=O)C(=O)c1cc(OC)cnc1-2
GI50 (MDA-MB-468 breast): 249 nM
TGI (MDA-MB-468 breast): 4300 nM

O=C1C(Nc2ccc(Cl)cc2)=C(I)C(=O)c2ncccc21
GI50 (MDA-MB-468 breast): 1510 nM
TGI (MDA-MB-468 breast): 3820 nM

COc1ccc(CCN2CC=Cn3c2nc2ccccc2c3=O)cc1
GI50 (MDA-MB-468 breast): 81.6 nM
TGI (MDA-MB-468 breast): 11800 nM

COc1ccc2c(c1)c(CC(=O)[Se]C)c(C)n2C(=O)c1ccc(Cl)cc1
GI50 (MDA-MB-468 breast): > 419 nM
TGI (MDA-MB-468 breast): > 681 nM

[Cl][Sn]([c]1ccccc1)([c]1ccccc1)[c]1ccccc1
GI50 (MDA-MB-468 breast): 137 nM
TGI (MDA-MB-468 breast): 326 nM

O=C(Nc1ccc(Br)cc1F)c1cc(I)ccc1O
GI50 (MDA-MB-468 breast): 2170 nM
TGI (MDA-MB-468 breast): 6220 nM

O=C(Nc1ccc(Cl)cc1)Nc1nc2ccc([N+](=O)[O-])cc2s1
GI50 (MDA-MB-468 breast): 862 nM
TGI (MDA-MB-468 breast): 2380 nM

CN1CCN(C(=O)Oc2cc3c(c4ccccc24)[C@H](CCl)CN3C(=O)c2cc3cc(OCCCN4CCC4)ccc3[nH]2)[C@@H]2CSSC[C@H]21
GI50 (UACC-62 melanoma): 2.2 nM
TGI (UACC-62 melanoma): 10.5 nM
GI50 (RPMI-8226 leukemia): 23.2 nM
TGI (RPMI-8226 leukemia): 1840 nM
GI50 (HL-60(TB) leukemia): 9.94 nM
TGI (HL-60(TB) leukemia): 321 nM
GI50 (RXF 393 renal): 5.66 nM
TGI (RXF 393 renal): 19 nM
GI50 (MOLT-4 leukemia): 4.45 nM
TGI (MOLT-4 leukemia): 223 nM
GI50 (HOP-92 NSCLC): 18.2 nM
TGI (HOP-92 NSCLC): 62.9 nM
GI50 (SK-OV-3 ovarian): 15 nM
TGI (SK-OV-3 ovarian): > 10000 nM
GI50 (SF-539 CNS): 5.25 nM
TGI (SF-539 CNS): 21 nM
GI50 (LOX IMVI melanoma): 2.2 nM
TGI (LOX IMVI melanoma): 15.8 nM
GI50 (NCI-H522 lung): 10.9 nM
TGI (NCI-H522 lung): 35.4 nM
GI50 (CCRF-CEM leukemia): 7.41 nM
TGI (CCRF-CEM leukemia): 3320 nM
GI50 (PC-3 prostate): 19.7 nM
TGI (PC-3 prostate): 981 nM
GI50 (M14 melanoma): 5.63 nM
TGI (M14 melanoma): 21.2 nM
GI50 (OVCAR-5 ovarian): 6.88 nM
TGI (OVCAR-5 ovarian): 40.8 nM
GI50 (MDA-MB-435): 12.7 nM
TGI (MDA-MB-435): 38.1 nM
GI50 (SR leukemia): 1.68 nM
TGI (SR leukemia): 39.2 nM
GI50 (BT-549 breast): 21.3 nM
TGI (BT-549 breast): 81.8 nM
GI50 (DU-145 prostate): 3.91 nM
TGI (DU-145 prostate): 2440 nM
GI50 (786-0 renal): 13.1 nM
TGI (786-0 renal): 40 nM
GI50 (A549 NSCLC): 1.79 nM
TGI (A549 NSCLC): > 10000 nM
GI50 (T-47D breast): 14.8 nM
TGI (T-47D breast): > 10000 nM
GI50 (HOP-62 NSCLC): 5.17 nM
TGI (HOP-62 NSCLC): 60.1 nM
GI50 (SNB-19 CNS): 5.79 nM
TGI (SNB-19 CNS): 76.2 nM
GI50 (HCC-2998 colon): 3.47 nM
TGI (HCC-2998 colon): 15.2 nM
GI50 (SF-268 CNS): 8.99 nM
TGI (SF-268 CNS): 293 nM
GI50 (OVCAR-3 ovarian): 27.4 nM
TGI (OVCAR-3 ovarian): > 10000 nM
GI50 (OVCAR-8 ovarian): 3.29 nM
TGI (OVCAR-8 ovarian): 129 nM
GI50 (SW-620 colon): 2.28 nM
TGI (SW-620 colon): 1480 nM
GI50 (SN12C renal): 10.5 nM
TGI (SN12C renal): 98.6 nM
GI50 (ACHN renal): 2.37 nM
TGI (ACHN renal): 7.23 nM
GI50 (HS 578T breast): 27.9 nM
TGI (HS 578T breast): 124 nM
GI50 (SK-MEL-2 melanoma): 18.7 nM
TGI (SK-MEL-2 melanoma): 35.2 nM
GI50 (K-562 leukemia): 4.4 nM
TGI (K-562 leukemia): > 10000 nM
GI50 (HCT-15 colon): 3.82 nM
TGI (HCT-15 colon): 24.2 nM
GI50 (SNB-75 CNS): 19.7 nM
TGI (SNB-75 CNS): 75 nM
GI50 (CAKI-1 renal): 2.82 nM
TGI (CAKI-1 renal): > 10000 nM
GI50 (HT29 colon): 8.29 nM
TGI (HT29 colon): > 10000 nM
GI50 (EKVX NSCLC): 12.2 nM
TGI (EKVX NSCLC): 40.6 nM
GI50 (SF-295 CNS): 2.25 nM
TGI (SF-295 CNS): 6.82 nM
GI50 (MDA-MB-468 breast): 2.55 nM
TGI (MDA-MB-468 breast): 7.92 nM
GI50 (NCI-H23 lung): 1.74 nM
TGI (NCI-H23 lung): 5.41 nM
GI50 (MALME-3M melanoma): 6.37 nM
TGI (MALME-3M melanoma): 20 nM
GI50 (COLO 205 colon): 14.8 nM
TGI (COLO 205 colon): 33.8 nM
GI50 (OVCAR-4 ovarian): 27.5 nM
TGI (OVCAR-4 ovarian): 93.4 nM
GI50 (KM12 colon): 15.7 nM
TGI (KM12 colon): 1520 nM
GI50 (HCT-116 colon): 6.75 nM
TGI (HCT-116 colon): > 10000 nM

— PubChem BioAssay (NCI)
